Source: patent publication US8841257B2, “Inhibitors of STAT3 and uses thereof” (Board of Regents, The University of Texas System, priority 2009, dated 2014)
“Also recorded” adds a separate entry of the source.

Tests used:
STAT3 [1] = target: T1, STAT3 (Homo sapiens, UniProt P40763); assay: Inhibition of STAT3 phosphorylation in BT20 breast tumor cells (western blot); format: cell-based; design: endogenous in cells; host or cells: BT20 breast tumor cells
Procedure: Inhibition of STAT3 in BT20 Breast Tumor Cells. General procedure: 35 mm petri dishes were plated with 300,000 BT20 cells in 2 mL RPMI1640 media containing 10% FBS, […], streptomycin, and glutamine. Prodrugs were dissolved in DMSO and were added to the cells with fresh media at varying concentrations. After 2 h the cells were washed with ice cold phosphate buffered saline. Washed cells were treated with lysis buffer (50 mM Hepes, pH 7.4, 150 mM NaCl, 1.5 mM MgCl2, 1 mM EGTA, 100 mM NaF, 10 mM sodium pyrophosphate, 10% glycerol, 1% Triton X-100, 1 mM PMSF, 1 mM Na3VO4, 10 μg/mL leupeptin and 10 μg/mL aprotinin). Cell-free detergent extracts were centrifuged at 15,000 rpm in a microcentriguge for 30 min at 4° C. and the protein concentrations of the supernatants determined. Aliquots containing 12 μg of protein were separated on 8% SDS-PAGE and were transferred to PVDF filters. The filters were blocked with 5% bovine serum albumin and were probed with pStat3^Y705 antibody followed by secondary antibody, whose signal was detected with an enhanced chemiluminescence kit (ECL, Amersham, Chicago, Ill.). Filters were stripped with stripping buffer (62.5 mM Tris, pH 6.8, 2% SDS, and 0.1 M 2-mercaptoethanol) at 50° C. for 30 min. Filters were then probed with total Stat3 antibody and visualized with chemiluminescence as above.
Because DMSO is toxic, other formulations were evaluated for potential use in animal models. The compound of Example 1 was dissolved in EtOH, 20% (w/v) Trappsol (hydroxypropyl β-cyclodextran, pharmaceutical grade), or a liposomal formulation to a concentration of 5 mM. These formulations were given to cells at 0.1, 0.5, and 5 μM concentrations. At two hours, cells were lysed and pSTAT3 levels were determined by Western Blot (FIG. 3). Different formulations have little effect on inhibition of STAT3. The compound of Example 1 was dissolved in DMSO, EtOH, Trappsol, or as a 10 mol % mixture in dimyristoylphosphatidyl choline and applied to BT20 cell in culture. After two hours, cells were lysed and pSTAT3 levels determined by Western blot. To prepare liposomes a solution of 1.0 mg of the compound of Example 1, 7.2 mg of DMPC, 0.41 mg of Tween 20 in 1.0 mL of tert-butanol was lyophilized. A control lipid formulation of 7.2 mg of DMPC and 0.41 mg of Tween 20 in 1.0 mL of tert-butanol was lyophilized. These samples were mixed with 236 μL of H2O and were vortexed and sonicated for 5 min.
The compounds are selective for STAT3 over STAT1 in BT20 breast tumor cells. BT20 cells prepared as above and were treated with 5 μM of the compound of Example 1 for two hours then were treated with 25 ng/mL of interferon γ (IFNγ). […] (FIG. 4, bottom panel).
Time course of inhibition of STAT3 phosphorylation in BT20 cells. BT20 cells were plated as above and treated with the compounds from Examples 1 and 6 and western blots were performed at varying time intervals.

[2] = system: SUM149 inflammatory breast tumor cells; assay: Anchorage-independent growth in soft agar, SUM149; format: cell-based; conditions: 28 days
Procedure: (§1) Assay for anchorage-independent growth in soft agar Cells (5×10^5) were suspended in 1× DMEM/HEPES, 10% heat-inactivated FBS, 0.13% bicarbonate, and 0.33% BBL agar. The cells were plated on 1% base agar plates (60 mm) containing 1× DMEM/HEPES, 10% heat-inactivated FBS, and 1% BBL agar. Fresh serum-containing medium was fed to the cells on 3-day intervals. The dishes were then incubated at 37° C. with 5% CO2 for 28 days. The colonies that grew in soft agar were photographed and counted. Data are expressed as the number of colonies formed per plate±S.E.M. and three plates were counted per cell line.

[3] = system: MDA7, MDA-MB-231, SUM149, and SUM190; assay: Anchorage-independent growth in soft agar, four breast tumor models; format: cell-based; conditions: MDA7, MDA-MB-231, SUM149, SUM190; 28 days
Procedure: as §1

[4] = system: SUM149 and MDA-MB-231 cells; assay: In vitro invasion of an artificial basement membrane; format: cell-based, human; conditions: 5 μM in DMSO; 72 hours
Procedure: Effect of prodrugs on in vitro invasion of an artificial basement membrane by human breast cancer cells. SUM149 and MDA-MB-231 cells were trypsinized, resuspended in serum-supplemented medium, and counted. Cells were then washed 3 times with serum-free medium. Plates (6-well) compatible with transwell inserts with 8 μm pore-size polycarbonate filters (Fisher Scientific) were coated with Matrigel in cold serum-free DMEM/F12 at a final concentration of 0.7 mg/mL and held at room temperature for 40 minutes. Cells (in 500 μL serum-free medium) were added into the transwell inserts and incubated for 72 hours in the absence or presence 5 μM prodrug in DMSO (1% by volume). For a control, 10% FBS was used to evaluate the baseline extent of invasion of the different cell lines. After incubation, noninvading cells on the upper surface of the filter were removed with cotton swabs. Cells that had passed through the pores onto the lower side of the filter were fixed, stained with Hema-3 stain (Fisher Scientific), and quantified. The experiments were performed in triplicate and were repeated twice.

STAT5 = assay: EGF-stimulated STAT5 phosphorylation in MDA-MB-468 cells; format: cell-based, human; conditions: 1.5 hr prodrug, then EGF 100 ng/mL 30 min
Procedure: (§2) Effect of prodrug on the phosphorylation of STAT3, STAT5 and Akt in response to Epidermal Growth Factor stimulation. MDA-MB-468 cells were prepared as above. Prodrugs were prepared as 10 mM stock solutions in DMSO and aliquots were added to the culture media to give the correct final concentrations. After 1.5 hr EGF was added at 100 ng/mL. After 30 minutes cells were collected and lysed and proteins were separated by PAGE and transferred to three PVDF filters as above. The first filter was blocked with 5% bovine serum albumin and probed for total and phosphoStat3 as above. The second filter was probed for phosphoSer473Akt and total Akt using appropriate antibodies and similar detection procedures to those used for STAT3. The third filter was probed for phosphoTyr699 Stat5 and total STAT5 using appropriate antibodies and similar detection procedures to those used for STAT3.

Akt = assay: EGF-stimulated Akt Ser473 phosphorylation in MDA-MB-468 cells; format: cell-based, human; conditions: 1.5 hr prodrug, then EGF 100 ng/mL 30 min
Procedure: as §2

[5] = system: Focal Adhesion Kinase (FAK); assay: Phosphorylation of Focal Adhesion Kinase Tyr861 in MDA-MB-468 cells; format: cell-based, human; conditions: 2 hr treatment
Excerpt: Effect of Prodrug on the phosphorylation of Focal Adhesion Kinase (FAK) in MDA-MB-468 breast tumor cells. MDA-MB-468 cells express constitutive phosphorylation of Tyr861 of FAK (Laird, A. et al., Src Family Kinase Activity is Required For Signal Tranducer and Activator of Transcription 3 and Focal Adhesion Kinase Phosphorylation and Vascular Endothelial Growth Factor Signaling In Vivo and For Anchorage-Dependent and Independent Growth Of Human Tumor Cells, Mol Cancer Ther, 2, 461-9(2003). a unique substrate of Src upon recruitment via its SH2 domain (Calalb, M. B., et al, S. K. Focal adhesion kinase tyrosine-861 is a major site of phosphorylation by Src. Biochem Biophys Res Commun 1996, 228, 662-8 (1996.) To test for cross reactivity to the Src SH2 domain, MDA-MB-468 cell extracts were probed for phosphorylation of Tyr861 of FAK.

STAT3 [6] = target: T1, STAT3; assay: Inhibition of Stat3 tyrosine705 phosphorylation in MDA-MB-468 cells; format: cell-based; design: host or cells: MDA-MB-468 breast tumor cells; conditions: 2 h
Procedure: Inhibition of Stat3 tyrosine705 phosphorylation in MDA-MB-468 cells. MDA-MB-468 breast tumor cells (0.4×10^6) were plated onto 35 mm culture dishes and were allowed to grow overnight. Prodrugs were prepared as 10 mM stock solutions in DMSO and aliquots were added to the culture media to give the correct final concentrations. After 2 h the cells were washed with ice cold phosphate buffered saline. Washed cells were treated with lysis buffer (50 mM Hepes, pH 7.4, 150 mM NaCl, 1.5 mM MgCl2, 1 mM EGTA, 100 mM NaF, 10 mM sodium pyrophosphate, 10% glycerol, 1% Triton X-100, 1 mM PMSF, 1 mM Na3VO4, 10 μg/mL leupeptin and 10 μg/mL aprotinin). Cell-free detergent extracts were centrifuged at 15,000 rpm in a microcentriguge for 30 min at 4° C. and the protein concentrations of the supernatants determined. Aliquots containing 12 μg of protein were separated on 8% SDS-PAGE and were transferred to PVDF filters. The filters were blocked with 5% bovine serum albumin and were probed with pStat3^Y705 antibody followed by secondary antibody, whose signal was detected with an enhanced chemiluminescence kit (ECL, Amersham, Chicago, Ill.). Filters were stripped with stripping buffer (62.5 mM Tris, pH 6.8, 2% SDS, and 0.1 M 2-mercaptoethanol) at 50° C. for 30 min. Filters were then probed with total Stat3 antibody and visualized with chemiluminescence as above.

STAT3 [7] = target: T1, STAT3; assay: EGF-stimulated STAT3 phosphorylation in MDA-MB-468 cells; format: cell-based; design: host or cells: MDA-MB-468 breast tumor cells; conditions: 1.5 hr prodrug, then EGF 100 ng/mL 30 min
Procedure: as §2

STAT1 = target: T2, STAT1 (Homo sapiens, UniProt P42224); assay: IFNγ-stimulated STAT1 phosphorylation in MDA-MB-468 cells; format: cell-based; design: host or cells: MDA-MB-468 breast tumor cells
T2 sequence (P42224 1-750): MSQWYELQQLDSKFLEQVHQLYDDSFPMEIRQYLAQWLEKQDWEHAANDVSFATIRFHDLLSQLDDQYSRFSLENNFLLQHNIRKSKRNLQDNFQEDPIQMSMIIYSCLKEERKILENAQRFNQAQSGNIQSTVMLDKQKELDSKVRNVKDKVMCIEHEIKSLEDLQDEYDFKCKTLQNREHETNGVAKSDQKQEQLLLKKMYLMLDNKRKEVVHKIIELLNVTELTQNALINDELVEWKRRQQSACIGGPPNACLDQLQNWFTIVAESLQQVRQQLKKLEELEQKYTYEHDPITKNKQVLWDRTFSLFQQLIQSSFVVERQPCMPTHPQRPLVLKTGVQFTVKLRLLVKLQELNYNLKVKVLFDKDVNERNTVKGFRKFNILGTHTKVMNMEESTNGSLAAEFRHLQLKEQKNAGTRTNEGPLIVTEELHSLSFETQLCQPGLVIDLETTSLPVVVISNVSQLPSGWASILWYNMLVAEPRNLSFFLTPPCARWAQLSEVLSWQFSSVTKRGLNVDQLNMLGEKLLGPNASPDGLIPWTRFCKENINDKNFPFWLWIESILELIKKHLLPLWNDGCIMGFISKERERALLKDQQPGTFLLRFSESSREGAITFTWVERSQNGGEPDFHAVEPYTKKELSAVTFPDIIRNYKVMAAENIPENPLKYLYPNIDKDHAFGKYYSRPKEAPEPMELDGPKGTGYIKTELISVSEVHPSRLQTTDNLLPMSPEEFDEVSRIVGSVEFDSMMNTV
Procedure: Effect of Prodrug on the phosphorylation of STAT1 in MDA-MB-468 breast tumor cells. MDA-MB-468 cells were prepared as above. Prodrugs were prepared as 10 mM stock solutions in DMSO and aliquots were added to the culture media to give the correct final concentrations. After 1.5 hr interferonγ was added at 25 ng/mL. After 30 minutes cells were collected and lysed and proteins were separated by PAGE and transferred to PVDF filters as above. Filters were probed for phosphoTyr701 Stat 1 and total Stat1 using appropriate antibodies and similar detection procedures to those used for Stat3.

T1 sequence (P40763 whole entry): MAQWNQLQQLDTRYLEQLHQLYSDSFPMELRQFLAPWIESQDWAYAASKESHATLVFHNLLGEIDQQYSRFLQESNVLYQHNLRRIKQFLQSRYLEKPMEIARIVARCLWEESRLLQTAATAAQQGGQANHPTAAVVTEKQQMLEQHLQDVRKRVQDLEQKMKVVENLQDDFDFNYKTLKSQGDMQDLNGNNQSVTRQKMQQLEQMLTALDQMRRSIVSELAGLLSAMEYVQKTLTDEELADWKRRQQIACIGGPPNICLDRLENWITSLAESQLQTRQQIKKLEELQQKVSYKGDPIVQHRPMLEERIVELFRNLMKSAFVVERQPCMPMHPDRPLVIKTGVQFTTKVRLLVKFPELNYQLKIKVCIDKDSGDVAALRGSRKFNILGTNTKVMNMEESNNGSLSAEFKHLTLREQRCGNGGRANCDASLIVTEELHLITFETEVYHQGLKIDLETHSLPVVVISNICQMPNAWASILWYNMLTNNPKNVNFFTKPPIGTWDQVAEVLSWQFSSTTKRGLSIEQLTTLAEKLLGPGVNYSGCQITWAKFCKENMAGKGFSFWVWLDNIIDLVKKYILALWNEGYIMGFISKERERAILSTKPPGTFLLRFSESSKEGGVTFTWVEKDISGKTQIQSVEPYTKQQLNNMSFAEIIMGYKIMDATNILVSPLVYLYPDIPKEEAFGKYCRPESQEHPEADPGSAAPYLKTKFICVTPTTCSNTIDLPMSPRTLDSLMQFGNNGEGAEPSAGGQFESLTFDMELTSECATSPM

`C/C(=C\C(=O)N[C@H]1CCc2cccc3c2N(C1=O)[C@H](C(=O)N[C@H](C)CCC(N)=O)C3)c1ccc(OP(=O)(OCOC(=O)C(C)(C)C)OCOC(=O)C(C)(C)C)cc1` [Example 6, (2E)-3-[4-[[bis[(2,2-dimethyl-1-oxopropoxy)methoxy]phosphinyl]oxy]phenyl]-but-2-enoyl-Haic-(R)-4-aminopentamide] was tested, and the “phosphorylation of STAT3 at the indicated time points” value (STAT3 [1]; 5 μM, BT-20 cells) was “inhibit the phosphorylation of STAT3”.

In the case of `C/C(=C\C(=O)N[C@H]1CCc2cccc3c2N(C1=O)[C@H](C(=O)N[C@H](C)CCC(N)=O)C3)c1ccc(C(F)(F)P(=O)(Oc2ccccc2)Oc2ccccc2)cc1` [Example 8, (E)-3-[4-[(Diphenoxyphosphinyl)difluoromethyl]phenyl]-but-2-enoyl-Haic-(R)-4-aminopentamide], the “colony formation in soft agar” value [2] is reported as “inhibition of colony formation”, the “colony formation in soft agar, four breast tumor models” value [3] is reported as “inhibition” and the “invasion through the artificial basement membrane” value [4] is reported as “inhibited invasion”. The “effectiveness of phosphate (X=O) relative to difluoromethyl phosphonate Example 1 (X=CF2)” value (STAT3 [1]; BT20 time course) was “as effective as”.

In the case of `CCCC[C@H](NC(=O)/C=C(\C)c1ccc(C(F)(F)P(=O)(OCOC(=O)C(C)(C)C)OCOC(=O)C(C)(C)C)cc1)C(=O)N1C[C@H]2CC2[C@H]1C(=O)N[C@H](C)CCC(N)=O` (stereo partly drawn) [Example 18, (2E)-3-[4-[[bis[(2,2-dimethyl-1-oxopropoxy)methoxy]phosphinyl]difluoromethyl]phenyl]-but-2-enoyl-norleucinyl-(2S,3R,4S)-methanoprolinyl-(R)-4-aminopentamide], the “Stat5 phosphorylation after EGF” value (STAT5) is reported as “no effect”, the “Akt Ser473 phosphorylation after EGF” value (Akt) is reported as “no effect” and the “phosphorylation of FAK Tyr861” value [5] is reported as “no reduction; also recorded: do not inhibit”. The “concentration as low as which partial inhibition of STAT3 phosphorylation was seen” value (STAT3 [6]) was 10 nM, the “concentration at which complete inhibition of STAT3 phosphorylation occurred” value (STAT3 [6]) was 500 nM and the “inhibition of Tyr705 phosphorylation of Stat3 (potency in words)” value (STAT3 [6]; prodrug in DMSO) was “very potent inhibitors; also recorded: inhibit phosphorylation of STAT3”. The “EGF-induced increase in Stat3 phosphorylation” value (STAT3 [7]) was “effective at inhibiting”, the “inhibition of Stat1 phosphorylation compared with Stat3 phosphorylation” value (STAT1; 1.5 hr prodrug, then interferonγ 25 ng/mL 30 min) was “less effective” and the “fold less potent at inhibiting STAT1 than STAT3” value (STAT1; MDA-MB-468 cells) was “about 10 fold”.
